Like-named read-outs stand apart in the source and are kept apart here.
Legend:
[1] = Metabolism studies using human liver microsomal preparations; format: in vitro ADME; details: for HLMs t1/2 (min) / half-life: pooled human liver microsomes, with NADPH (CYP system active), 37° C.; for HLMs Predominant Enzyme: comparison of half life with and without NADPH: Esterase, CYP or Mixed; for half-life: pH 7.4, read-out: HLMs t1/2
Method: Compounds were incubated in pooled human liver microsomes (HLMs) in the presence or absence of an NADPH-generating system. NADPH is required for the activity of cytochrome P450 (CYP) and other oxidative enzymes present in HLMs, but not for esterase activity. An additional incubation was carried out in the absence of HLM to assess compound stability. The disappearance of parent and the appearance of the corresponding acid metabolite were monitored over the time course of the incubations using LC-MS/MS.
A stock solution (20 mM) of each proprietary compound in DMSO was prepared and store at −20° C. until needed. A working stock solution (0.2 mM) was prepared for each proprietary compound by adding an aliquot of the stock solution (10 μL) to acetonitrile (990 μL).
An aliquot of the HLM solution was removed from the −80° C. freezer and placed on ice. Tris Buffer (50 mM, pH 7.4) containing MgCl2 (hexahydrate, 5 mM) was pre-incubated in a 37° C. water bath. A set of Eppendorf microfuge tubes (1.5 mL) was appropriately labeled. To each tube was added Tris buffer with or without the NADPH generating system. An aliquot of pooled HLMs was added to all the incubations except those that were the buffer control.
Tubes were preincubated for 5 min in a shaking incubator bath (37° C., 900 rpm) and the reaction was initiated by adding an aliquot of the proprietary working solution (5 μL). The additions were timed carefully in order to coordinate the sample collections below. A small aliquot (50 μL) was removed at […] and delivered to the respective tubes containing dextrorphan (100 μL of 0.5 μg/mL solution) in dissolved in methanol or acetonitrile. The samples were centrifuged at 14000 g for 15 minutes at 4° C. The supernatant was transferred to clean labeled HPLC injection vials and stored at −80° C. until analyzed. An aliquot of the supernatant […] was added to water (75 μL), mixed and injected onto the LC-MS/MS system for analysis.
“HLM t1/2” represents the observed half life of the compound under conditions that included NADPH, i.e., the CYP system was active. Comparison to the half life of the test article under (−)NADPH conditions, the enzyme predominant ly responsible for the metabolism of the test article. […] Where roughly equal metabolism is seen by each enzyme system, “mixed” is noted in the “Predominant enzyme” column.

pig liver esterase = test: Metabolism studies using pig liver esterase; format: in vitro ADME; details: 37° C.
Method: The esterase-mediated metabolism of these compounds was studied using commercially available pig liver esterase in the presence and absence of human plasma proteins. The disappearance of parent was monitored over the time course of the incubations using a LC-UV detection system.
A stock solution and working stock solution was prepared for each proprietary compound as described for the human liver microsomal incubations. Working solutions of pig liver esterase in potassium phosphate buffer ([…], pH 7.4) and pig liver esterase in human plasma protein were prepared by dissolving pig liver esterase (2.51 mg) in the phosphate buffer or plasma protein solutions, respectively.
A set of three Eppendorf microfuge tubes (1.5 mL) was appropriately labeled. To each tube was added 1.5 mL of phosphate buffer, pig liver esterase in buffer, or pig liver esterase in human plasma protein solution. These solutions were pre-incubated (37° C., 900 rpm) and the reactions were initiated by adding an aliquot (37.5 μL) of the working solution of proprietary compound to each tube. An aliquot (100 μL) from each tube was removed at time 0, 5, 30, 60, and 120 min and added to a tube containing acetonitrile (200 μL) to stop the reaction.
The samples were centrifuged at 14000 g for 15 minutes at 4° C. The supernatant was transferred to clean labeled HPLC injection vials and stored at −80° C. until analyzed. An aliquot of the supernatant (25 μL) was injected onto the LC-UV system for analysis.
Half lives of a sample of test articles is noted in the following table. Half life was determined in the presence or absence of plasma.

Gal-4 hPPARα = target: T1, Gal-4 hPPARα (Homo sapiens, UniProt Q07869); test: Gal4-hPPARα transient transfection reporter assay in Cos cells; format: cell-based; details: luciferase reporter, 24 hours with compound, scale 1-5, read-out: Gal-4 hPPAR α EC50 (scaled number)
T1 construct: Plasmids pGal4-hPPARα, pGal4-hPPARγ, pGal4-hPPARδ and pG5-TK-pGL3 were constructed as previously described by Staels, Bart, et al., Nature 1998 Jun; 25
T1 sequence (Q07869 200-468 limits assumed): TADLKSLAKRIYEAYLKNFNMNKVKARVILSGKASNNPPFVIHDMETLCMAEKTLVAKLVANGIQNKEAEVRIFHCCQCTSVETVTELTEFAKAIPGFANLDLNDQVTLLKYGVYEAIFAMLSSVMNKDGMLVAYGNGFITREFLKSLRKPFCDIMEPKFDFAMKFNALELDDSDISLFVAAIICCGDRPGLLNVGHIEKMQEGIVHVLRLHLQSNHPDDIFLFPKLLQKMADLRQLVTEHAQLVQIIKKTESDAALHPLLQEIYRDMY
Procedure, shortened: (§1)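 Cos cells transiently co-transfected with Gal4-hPPAR expression plasmid, pG5-TK-pGL3 luciferase reporter and β-galactosidase control, then treated 24 h with increasing compound concentrations in DMEM containing 0.2% FCS. Luciferase normalised to β-galactosidase; EC50 from curve fit, at least three experiments.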

Gal-4 hPPARβ/δ = target: T2, Gal-4 hPPARβ/δ (Homo sapiens, UniProt Q03181); test: Gal4-hPPARδ transient transfection reporter assay in Cos cells; format: cell-based; details: luciferase reporter, 24 hours with compound, scale 1-5, read-out: Gal-4 hPPAR β/δ EC50 (scaled number)
T2 construct: Plasmids pGal4-hPPARα, pGal4-hPPARγ, pGal4-hPPARδ and pG5-TK-pGL3 were constructed as previously described by Staels, Bart, et al., Nature 1998 Jun; 25
T2 sequence (Q03181 171-441 limits assumed): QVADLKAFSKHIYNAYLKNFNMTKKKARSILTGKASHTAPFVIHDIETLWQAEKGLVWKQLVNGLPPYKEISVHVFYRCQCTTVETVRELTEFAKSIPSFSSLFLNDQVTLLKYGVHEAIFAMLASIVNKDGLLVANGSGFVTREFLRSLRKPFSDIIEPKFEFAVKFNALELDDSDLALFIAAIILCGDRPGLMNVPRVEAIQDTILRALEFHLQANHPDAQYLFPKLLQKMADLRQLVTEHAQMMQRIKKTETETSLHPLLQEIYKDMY
Procedure, shortened: as §1

Gal-4 hPPARγ = target: T3, Gal-4 hPPARγ (Homo sapiens, UniProt P37231); test: Gal4-hPPARγ transient transfection reporter assay in Cos cells; format: cell-based; details: luciferase reporter, 24 hours with compound, scale 1-5, read-out: Gal-4 hPPAR γ EC50 (scaled number)
T3 construct: Plasmids pGal4-hPPARα, pGal4-hPPARγ, pGal4-hPPARδ and pG5-TK-pGL3 were constructed as previously described by Staels, Bart, et al., Nature 1998 Jun; 25
T3 sequence (P37231 238-505 limits assumed): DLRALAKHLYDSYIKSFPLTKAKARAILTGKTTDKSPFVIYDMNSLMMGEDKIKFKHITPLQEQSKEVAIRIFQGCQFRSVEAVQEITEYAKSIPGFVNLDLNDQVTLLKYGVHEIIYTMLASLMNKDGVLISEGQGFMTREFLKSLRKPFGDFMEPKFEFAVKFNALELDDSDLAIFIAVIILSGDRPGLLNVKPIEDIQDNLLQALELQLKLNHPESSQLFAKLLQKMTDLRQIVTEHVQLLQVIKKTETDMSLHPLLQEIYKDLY
Procedure, shortened: as §1

[2] = pig liver esterase in human plasma protein solution
[3] = pig liver esterase in phosphate buffer pH 7.4, no plasma, read-out: Pig Liver Esterase (t1/2 min.) (−) Plasma
[4] = pig liver esterase in human plasma protein solution, read-out: Pig Liver Esterase (t1/2 min.) (+) Plasma

Row | HLMs t1/2 (min) [1] | Pig Liver Esterase (t1/2 min.) (+) Plasma (pig liver esterase; [2]) | half-life at 4.9 µM (pig liver esterase; [3]) [h] | EC50 (Gal-4 hPPARα) [nM] | EC50 (Gal-4 hPPARβ/δ) [nM] | half-life at 4.9 µM (pig liver esterase; [4]) [h] | EC50 (Gal-4 hPPARγ) [nM] | HLMs Predominant Enzyme [1] | half-life [1] [h] | SMILES
1 | Stable | Stable | 0.317 |  |  |  |  |  |  | CCCCCCn1c(COC(=O)Cc2ccc(OC(C)(C)C(=O)O)cc2)nn(Cc2ccc(C)cc2)c1=O [Compound 014, 2-(4-(2-((4-hexyl-1-(4-methylbenzyl)-5-oxo-4,5-dihydro-1H-1,2,4-triazol-3-yl)methoxy)-2-oxoethyl)phenoxy)-2-methylpropanoic acid]
2 | Stable |  | 1.13 | 1 to 50 | > 1000 | > 2 | > 1000 |  |  | C[C@@H](OC(=O)c1ccc(SC(C)(C)C(=O)O)cc1)c1cn(Cc2ccc(C(F)(F)F)cc2)nn1 [Compound 95, (R)-2-methyl-2-(4-((1-(1-(4-(trifluoromethyl)benzyl)-1H-1,2,3-triazol-4-yl)ethoxy)carbonyl)phenylthio)propanoic acid]
3 | Stable |  | > 2 | 51 to 200 | > 1000 | > 2 | > 1000 |  |  | CCCn1c([C@H](C)OC(=O)c2ccc(SC(C)(C)C(=O)O)cc2)nn(Cc2ccc(C)cc2)c1=O [Compound 248, 4-(1-Carboxy-1-methyl-ethylsulfanyl)-benzoic acid (S)-1-[1-(4-methyl-benzyl)-5-oxo-4-propyl-4,5-dihydro-1H-1,2,4-triazol-3-yl]-ethyl ester]
4 | Stable |  | > 2 | 1 to 50 | > 1000 | > 2 | > 1000 |  |  | CCCn1c([C@@H](C)OC(=O)c2ccc(SC(C)(C)C(=O)O)cc2)nn(Cc2ccc(C)cc2)c1=O [Compound 249, 4-(1-Carboxy-1-methyl-ethylsulfanyl)-benzoic acid (R)-1-[1-(4-methyl-benzyl)-5-oxo-4-propyl-4,5-dihydro-1H-1,2,4-triazol-3-yl]-ethyl ester]
5 | Stable | Stable | 2 |  |  |  |  | Stable |  | Cc1ccc(Cn2nncc2COC(=O)c2ccc(OC(C)(C)C(=O)O)cc2)cc1 [Compound 63, 2-methyl-2-(4-(((1-(4-methylbenzyl)-1H-1,2,3-triazol-5-yl)methoxy)carbonyl)phenoxy)propanoic acid]
6 |  |  | 0.05 |  |  | > 2 |  | Esterase | 0.5 | CCCn1nc(Cc2ccc(C)cc2)cc1COC(=O)c1ccc(OC(C)(C)C(=O)O)cc1 [Compound 54, 4-(1-Carboxy-1-methyl-ethoxy)-benzoic acid 5-(4-methyl-benzyl)-2-propyl-2H-pyrazol-3-ylmethyl ester]
7 | Stable | Stable | 0.2 |  |  |  |  |  |  | CCCCCCCCn1c(COC(=O)Cc2ccc(OC(C)(C)C(=O)O)cc2)nn(Cc2ccc(C)cc2)c1=O [Compound 012, 2-methyl-2-(4-(2-((1-(4-methylbenzyl)-4-octyl-5-oxo-4,5-dihydro-1H-1,2,4-triazol-3-yl)methoxy)-2-oxoethyl)phenoxy)propanoic acid]
8 |  |  | 0.25 |  |  | 0.733 |  | Esterase | 0.5 | CC(C)c1ccc(-n2nncc2COC(=O)c2ccc(SC(C)(C)C(=O)O)cc2)cc1 [Compound 59, 2-(4-(((1-(4-isopropylphenyl)-1H-1,2,3-triazol-5-yl)methoxy)carbonyl)phenylthio)-2-methylpropanoic acid]
9 |  | Stable | 1.28 |  |  |  |  | Mixed | 1.22 | C[C@@H](Cc1cn(Cc2ccc(C(F)(F)F)cc2)nn1)OC(=O)c1ccc(SC(C)(C)C(=O)O)cc1 [Compound 147, 4-(1-Carboxy-1-methyl-ethylsulfanyl)-benzoic acid (S)-1-methyl-2-[1-(4-trifluoromethyl-benzyl)-1H-1,2,3-triazol-4-yl]-ethyl ester]
10 | Stable |  | > 2 | 1 to 50 | > 1000 | > 2 | > 1000 |  |  | CCCn1c(C(C)OC(=O)c2ccc(SC(C)(C)C(=O)O)cc2)nn(Cc2ccc(C)cc2)c1=O (stereo not shown) [Compound 199, 2-methyl-2-(4-((1-(1-(4-methylbenzyl)-5-oxo-4-propyl-4,5-dihydro-1H-1,2,4-triazol-3-yl)ethoxy)carbonyl)phenylthio)propanoic acid]

Reference: patent US20100184815A1 (priority 2008, published 2010)
